Assay results reported in paper PMC4105567, “Aurora Kinases as Druggable Targets in Pediatric Leukemia: Heterogeneity in Target Modulation Activities and Cytotoxicity by Diverse Novel Therapeutic Agents” (PLoS ONE, 2014).
Like-named read-outs stand apart in the source and are kept apart here.

Experiments:
[1] = tested on: Bone Marrow Stroma; experiment: Cytotoxicity assay, bone marrow stroma; assay type: cell-based, human; details: Homo sapiens, 96 h; bone marrow stroma (control for non-leukemia cytotoxicity); four days in culture; ± SD, three experiments
Protocol: (§1) For cytotoxicity profiling of Aurora kinase inhibitors against leukemia cell lines, inhibitors or vehicle control (DMSO, Sigma-Aldrich) were diluted in 100 µl of Opti-MEM per well in 96 well plates (Grenier Bio-One, Monroe, North Carolina) in triplicate at final concentrations ranging from 1×10^−6 to 10 µM. 1×10^4 cells per well were seeded and plates were incubated for 4 days. Following incubation for 4 days, cell survival was quantified by Alamar blue assay (Invitrogen) or automated inverted microscopy using the Celigo Cell Cytometer (Cyntellect, San Diego, California). […] During this period of incubation, the absorbance at 570–620 nm was measured (Opsys MR Plate Reader, Dynex Technologies, Chantilly, Virginia) at various time points, depending on the cell line or sample. Percent survival was calculated by comparing the absorbance ratio of the test well to the control well multiplied by 100%, as indicated in the following formula: […]
(§2) For automated inverted microscopy, the number of cells in each well was determined using the direct cell counting application as described previously. Briefly, following adjustment of image acquisition settings for bright-field imaging, the wells containing cells and appropriate dilutions of inhibitors were individually scanned. Based on these images, analysis parameters, including intensity threshold and cell diameter, were modified for optimal inclusion of viable cells in treated and control wells. These parameters were applied for subsequent replicates involving the same leukemia cell line or sample. The percent survival was then calculated as a ratio of the number of cells in treated wells to the number of cells in control wells multiplied by 100%. Given that Aurora kinase inhibitors interfere with cytokinesis, cells that are committed to death may still contain enlarging but intact cytoplasmic content before the eventual loss of cytoplasmic membrane integrity. The accuracy of Alamar blue assay may be, in theory, affected by the timing of these events.

[2] = tested on: Patient #3 AML/CML primary leukemia cells; experiment: Cytotoxicity assay, primary sample Patient #3; assay type: cell-based, human; details: Homo sapiens, 96 h, four days in culture, Alamar blue assay or automated microscopy, one complete study
Protocol: (§3) These include B-ALL (Patient #1), relapsed AML (Patient #2), AML/CML (Patient #3), infant ALL (Patient #4), and initial ALL presenting with secondary AML (Patient #5). […] The diluted sample was then layered on a Ficoll-Paque (GE Healthcare, Piscataway, New Jersey) gradient at a 1∶2 ratio of Ficoll to diluted sample. Samples were then centrifuged 1800 rpm for 20 minutes at room temperature. The buffy coat was removed with a pipette and transferred to a new centrifuge tube and diluted with PBS. After an additional centrifugation at 1200 rpm, the white blood cell pellet was washed with PBS and centrifuged one last time. Cells were re-suspended in Opti-MEM and viable cells were counted using trypan blue (Invitrogen, Life Technologies Corporation, Burlington, Ontario) exclusion on a haemocytometer. An identical protocol was followed for the isolation of white blood cells, referred to as “normal lymphocytes” in the following paragraphs, from healthy volunteers. Samples grown in culture for up to six months were cultured in Opti-MEM medium supplemented with 10% heat inactivated FBS, penicillin/streptomycin and 2-mercaptoethanol.
as §1, §2

[3] = tested on: Patient #5 ALL/AML primary leukemia cells; experiment: Cytotoxicity assay, primary sample Patient #5; assay type: cell-based, human; details: Homo sapiens, 96 h, read-out: IC50, Patient #5 ALL/AML
Protocol: as §3, §1, §2

[4] = tested on: KOPN8 B-ALL cell line; experiment: Cytotoxicity assay, KOPN8; assay type: cell-based, human; details: Homo sapiens, KOPN-8, 96 h, four days in culture, Alamar blue assay or automated microscopy, ± SD, three experiments
Protocol: (§4) Cell lines were cultured in Opti-MEM medium (Gibco, Life Technologies Corporation, Burlington, Ontario) supplemented with 10% heat inactivated fetal bovine serum (FBS) (Gibco), 100 units/ml penicillin and 100 units/ml streptomycin (Gibco) and 0.05 mM 2-mercaptoethanol (Sigma-Aldrich, Oakville, Ontario) in T25 flasks (Nalge Nunc, Rochester, New York) or T75 flasks (Corning Incorporated, Corning, New York). All cell cultures were maintained at 37°C in a humidified incubator with 5% CO2.
as §1, §2

[5] = tested on: HL-60 APML cell line; experiment: Cytotoxicity assay, HL-60; assay type: cell-based, human; details: Homo sapiens, 96 h; APML cell line HL-60; four days in culture; Alamar blue assay or automated microscopy; ± SD, three experiments
Protocol: as §4, §1, §2

[6] = tested on: Patient #1 B-ALL primary leukemia cells; experiment: Cytotoxicity assay, primary sample Patient #1; assay type: cell-based, human; details: Homo sapiens, 96 h, four days in culture, Alamar blue assay or automated microscopy, one complete study
Protocol: as §3, §1, §2

[7] = tested on: NB4 APML cell line; experiment: Cytotoxicity assay, NB4; assay type: cell-based, human; details: Homo sapiens, 96 h, four days in culture, Alamar blue assay or automated microscopy, ± SD, three experiments
Protocol: as §4, §1, §2

[8] = tested on: normal cells versus leukemia cell lines; experiment: Comparison of cytotoxicity IC50 values, normal cells versus leukemia cell lines; assay type: cell-based, human; details: normal lymphocytes and bone marrow stroma versus leukemia cell lines of Table 2
Protocol: as §1, §2

[9] = tested on: Normal Lymphocytes; experiment: Cytotoxicity assay, normal lymphocytes; assay type: cell-based, human; details: Homo sapiens, Lymphocyte, 96 h; normal lymphocytes (control for non-leukemia cytotoxicity); four days in culture; ± SD, three experiments
Protocol: as §3, §1, §2

[10] = tested on: HL-60 RA APML cell line; experiment: Cytotoxicity assay, HL-60 RA; assay type: cell-based, human; details: Homo sapiens, 96 h; APML cell line HL-60 RA; four days in culture; Alamar blue assay or automated microscopy; ± SD, three experiments
Protocol: as §4, §1, §2

[11] = tested on: MV4-11 AML cell line; experiment: Cytotoxicity assay, MV4-11; assay type: cell-based, human; details: Homo sapiens, 96 h; AML cell line MV4-11; four days in culture; Alamar blue assay or automated microscopy; ± SD, three experiments
Protocol: as §4, §1, §2

[12] = tested on: Nalm6 B-ALL cell line; experiment: Cytotoxicity assay, Nalm6; assay type: cell-based, human; details: Homo sapiens, NALM-6, 96 h, four days in culture, Alamar blue assay or automated microscopy, ± SD, three experiments
Protocol: as §4, §1, §2

[13] = tested on: TIB-202 AML cell line; experiment: Cytotoxicity assay, TIB-202; assay type: cell-based, human; details: Homo sapiens, 96 h; AML cell line TIB-202; four days in culture; Alamar blue assay or automated microscopy; ± SD, three experiments
Protocol: as §4, §1, §2

[14] = tested on: UOCB1 B-ALL cell line; experiment: Cytotoxicity assay, UOCB1; assay type: cell-based, human; details: Homo sapiens, UoC-B1, 96 h, four days in culture, Alamar blue assay or automated microscopy, ± SD, three experiments
Protocol: as §4, §1, §2

[15] = tested on: CEM T-ALL cell line; experiment: Cytotoxicity assay, CEM; assay type: cell-based, human; details: Homo sapiens, 96 h, four days in culture, Alamar blue assay or automated microscopy, ± SD, three experiments
Protocol: as §4, §1, §2

[16] = tested on: Patient #4 infant leukemia primary cells; experiment: Cytotoxicity assay, primary sample Patient #4; assay type: cell-based, human; details: Homo sapiens, 96 h, four days in culture, Alamar blue assay or automated microscopy, one complete study
Protocol: as §3, §1, §2

[17] = tested on: Molm13 AML cell line; experiment: Cytotoxicity assay, Molm13; assay type: cell-based, human; details: Homo sapiens, MOLM-13, 96 h, four days in culture, Alamar blue assay or automated microscopy, ± SD, three experiments
Protocol: as §4, §1, §2

[18] = tested on: B1 B-ALL cell line; experiment: Cytotoxicity assay, B1; assay type: cell-based, human; details: Homo sapiens, 96 h, four days in culture, Alamar blue assay or automated microscopy, ± SD, three experiments
Protocol: as §4, §1, §2

[19] = tested on: Patient #2 relapsed AML primary leukemia cells; experiment: Cytotoxicity assay, primary sample Patient #2; assay type: cell-based, human; details: Homo sapiens, 96 h, four days in culture, Alamar blue assay or automated microscopy, one complete study
Protocol: as §3, §1, §2

[20] = tested on: SEM B-ALL cell line; experiment: Cytotoxicity assay, SEM; assay type: cell-based; details: Homo sapiens, 96 h, four days in culture, Alamar blue assay or automated microscopy, ± SD, three experiments
Protocol: as §4, §1, §2

[21] = tested on: Molt-3 T-ALL cell line; experiment: Cytotoxicity assay, Molt-3; assay type: cell-based, human; details: Homo sapiens, 96 h; T-ALL cell line Molt-3; four days in culture; Alamar blue assay or automated microscopy; ± SD, three experiments
Protocol: as §4, §1, §2

[22] = tested on: C1 B-ALL cell line; experiment: Cytotoxicity assay, C1; assay type: cell-based, human; details: Homo sapiens, 96 h, four days in culture, Alamar blue assay or automated microscopy, ± SD, three experiments
Protocol: as §4, §1, §2

[23] = tested on: Aurora-C; details: read-out: Targets (IC50 Value): Aurora-C; literature values; ref [10],[40],[44]–[64] as listed per inhibitor in Table 1; cited from earlier work

| SMILES | IC50 [1] [nM] | IC50 [2] [nM] | IC50 [4] [nM] | IC50 [5] [nM] | IC50 [6] [nM] | IC50 [7] [nM] | IC50 [9] [nM] | IC50 [10] [nM] | IC50 [11] [nM] | IC50 [12] [nM] | IC50 [13] [nM] | IC50 [14] [nM] | IC50 [15] [nM] | IC50 [16] [nM] | IC50 [17] [nM] | IC50 [18] [nM] | IC50 [19] [nM] | IC50 [20] [nM] | IC50 [21] [nM] | IC50 [22] [nM] | further results |
| --- | --- | --- | --- | --- | --- | --- | --- | --- | --- | --- | --- | --- | --- | --- | --- | --- | --- | --- | --- | --- | --- |
| Nc1nc(Nc2ccc(S(N)(=O)=O)cc2)nn1C(=O)c1c(F)cccc1F [JNJ-7706621] | 7000 ± 800 | > 10000 | 400 ± 80 | 5000 ± 2000 | 1000 | 2000 ± 900 | 7000 ± 500 | 800 ± 100 | 800 ± 90 | 1000 ± 100 | 3000 ± 1000 | 200 ± 90 | 300 ± 200 | 8000 | 2000 ± 600 | 1000 ± 100 | 700 | 700 ± 300 | 700 ± 100 | 1000 ± 500 | IC50 [3]: 0.5 nM; IC50 values for the normal cells compared with IC50 values for the leukemia cell lines (potential therapeutic window) [8]: lower than the IC50 values for the normal cells, but not as pronounced |
| COc1cc(Nc2ncc3c(n2)-c2ccc(Cl)cc2C(c2c(F)cccc2OC)=NC3)ccc1C(=O)O [MLN8237] | > 10000 | 700 | 5 ± 2 | 9 ± 0.9 | 6 | 60 ± 8 | 5000 ± 2000 | 4 ± 2 | 4 ± 1 | 6 ± 3 | 0.4 | 0.003 | < 0.001 | 3000 | 4 ± 2 | 4 ± 3 | 500 | 4 ± 1 | < 0.001 | 3 ± 1 | IC50 ([3]; primary sample, four days in culture, Alamar blue assay or automated microscopy, one complete study): 0.1 nM; IC50 values for the normal cells compared with IC50 values for the leukemia cell lines (potential therapeutic window) [8]: higher than the IC50 values for the leukemia cell lines |
| O=C(Nc1cccc(Cl)c1)Nc1ncc(CCNc2ncnc3ccsc23)s1 [SNS-314] | > 10000 | 4000 | < 0.001 | 0.02 | < 0.001 | 6 ± 4 | 4000 ± 2000 | < 0.001 | < 0.001 | < 0.001 | < 0.001 | < 0.001 | < 0.001 | 8000 | < 0.001 | < 0.001 | 0.5 | < 0.001 | < 0.001 | < 0.001 | IC50 [3]: < 0.001 nM; IC50 [23]: 3 nM |
